Residue numbers refer to the chain shown, from its start. Blank lines part the entries; values can stand above or below the molecule they belong to.
Columns and labels:
[1] = target: T1, CASTOR1 (Homo sapiens, UniProt Q8WTX7); assay: ITC; type: binding
T1 construct: full-length human CASTOR1, N-terminal 6×His-tag (homodimer)
T1 sequence (Q8WTX7 1-329): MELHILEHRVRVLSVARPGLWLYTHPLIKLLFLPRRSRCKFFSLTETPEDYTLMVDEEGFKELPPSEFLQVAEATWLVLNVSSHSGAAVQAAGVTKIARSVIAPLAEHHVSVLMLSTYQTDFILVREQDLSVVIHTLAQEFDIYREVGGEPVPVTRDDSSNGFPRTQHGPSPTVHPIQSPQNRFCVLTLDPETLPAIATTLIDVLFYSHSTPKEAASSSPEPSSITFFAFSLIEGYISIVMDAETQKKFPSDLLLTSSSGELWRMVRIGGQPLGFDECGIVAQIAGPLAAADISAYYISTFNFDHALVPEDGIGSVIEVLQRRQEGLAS

[2] = target: T2, CASTOR1 (Homo sapiens, UniProt Q8WTX7, S111A); assay: ITC; type: binding
T2 construct: full-length human CASTOR1, N-terminal 6×His-tag
T2 sequence (Q8WTX7 1-329 S111A): T1 sequence (Q8WTX7 1-329) with S111A

[3] = target: T3, Full-length human Mios with an N-terminal GST tag (human, UniProt Q9NXC5 1-875); assay: pull-down; Ni2+-NTA column pull-down: His-CASTOR1 pre-immobilised on the Ni2+-NTA column, GST-Mios (or another purified GATOR2 subunit) added at 4 °C; wash 25 mM Tris, pH 8.0, 300 mM NaCl, 20 mM imidazole; elution with 500 mM imidazole; SDS-PAGE and Coomassie Blue staining; conditions: both partners purified
T3 construct: Mios, human, full length, in pGEX4T-1; the methods describe only GST-Mios for the Ni2+-NTA pull-down; also called GST-Mios; purified Mios protein; not shown: GST, N-terminal, kept
T3 sequence (looked up): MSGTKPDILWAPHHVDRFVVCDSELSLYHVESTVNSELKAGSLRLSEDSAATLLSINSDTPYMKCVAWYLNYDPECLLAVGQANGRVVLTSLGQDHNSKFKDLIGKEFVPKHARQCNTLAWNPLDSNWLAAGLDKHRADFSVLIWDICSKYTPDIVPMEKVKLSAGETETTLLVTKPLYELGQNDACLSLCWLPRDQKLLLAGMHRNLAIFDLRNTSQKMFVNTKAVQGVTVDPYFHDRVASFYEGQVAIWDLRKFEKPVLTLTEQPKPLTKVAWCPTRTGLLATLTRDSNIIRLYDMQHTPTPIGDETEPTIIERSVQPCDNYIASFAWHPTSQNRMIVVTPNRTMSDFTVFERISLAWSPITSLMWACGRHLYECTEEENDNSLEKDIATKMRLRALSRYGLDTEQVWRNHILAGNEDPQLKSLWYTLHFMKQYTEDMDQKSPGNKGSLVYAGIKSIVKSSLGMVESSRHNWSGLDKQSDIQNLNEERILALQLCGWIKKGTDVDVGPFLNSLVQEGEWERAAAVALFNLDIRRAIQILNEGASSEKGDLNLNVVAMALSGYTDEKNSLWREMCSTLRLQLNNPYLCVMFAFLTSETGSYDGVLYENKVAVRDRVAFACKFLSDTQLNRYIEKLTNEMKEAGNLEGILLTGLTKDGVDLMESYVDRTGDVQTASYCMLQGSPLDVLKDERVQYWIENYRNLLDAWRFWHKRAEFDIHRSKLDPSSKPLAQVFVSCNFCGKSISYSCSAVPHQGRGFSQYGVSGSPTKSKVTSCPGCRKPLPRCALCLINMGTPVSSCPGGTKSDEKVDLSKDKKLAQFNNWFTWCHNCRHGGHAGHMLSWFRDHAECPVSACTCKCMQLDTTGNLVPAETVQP

[4] = target: the molecule itself; assay: SEC-MALS; 25 °C; about 400 μg protein injected per run; 15 mM Tris-HCl, pH 8.0, 150 mM NaCl, 2 mM DTT; WTC-015S5 column

Molecule: N=C(N)NCCC[C@H](N)C(=O)O [arginine]
Kd [1]: 2.23 µM
Kd [2]: 9.68 µM

binding result [3]: binds
B1: Full-length human CASTOR1, wild type, N-terminal 6xHis-tag (natural protein, UniProt Q8WTX7 1-329, looked up)
chain: T1 sequence (Q8WTX7 1-329)
notes: CASTOR1, human, full length (residues 1-329 by the domain limits printed in the results); cDNA chemically synthesized, in pET28a; Dimer in the crystal and by SEC-MALS; also called WT CASTOR1; His-CASTOR1; source: E. coli BL21(DE3), purified (Ni2+-NTA, Superdex 200 gel filtration); not shown: His6, N-terminal, kept
stoichiometry N [4]: 2

— PMC5187391, “Structural mechanism for the arginine sensing and regulation of CASTOR1 in the mTORC1 signaling pathway” (Cell Discovery, 2016)
